IC50 data for two molecules are collected here from PMC9731865, “Gambogic acid and juglone inhibit RNase P through distinct mechanisms” (The Journal of Biological Chemistry, 2022).

In this experiment the target is T1, human MRPP1/2/3 (Homo sapiens, UniProt O15091).
T1 construct: N-terminal truncation (residues 46–583, Δ45MRPP3); His6 (N, cleaved yes); made in house; host or cells: Rosetta (DE3) / Rosetta2 (DE3) E. coli
T1 sequence (O15091 46-583): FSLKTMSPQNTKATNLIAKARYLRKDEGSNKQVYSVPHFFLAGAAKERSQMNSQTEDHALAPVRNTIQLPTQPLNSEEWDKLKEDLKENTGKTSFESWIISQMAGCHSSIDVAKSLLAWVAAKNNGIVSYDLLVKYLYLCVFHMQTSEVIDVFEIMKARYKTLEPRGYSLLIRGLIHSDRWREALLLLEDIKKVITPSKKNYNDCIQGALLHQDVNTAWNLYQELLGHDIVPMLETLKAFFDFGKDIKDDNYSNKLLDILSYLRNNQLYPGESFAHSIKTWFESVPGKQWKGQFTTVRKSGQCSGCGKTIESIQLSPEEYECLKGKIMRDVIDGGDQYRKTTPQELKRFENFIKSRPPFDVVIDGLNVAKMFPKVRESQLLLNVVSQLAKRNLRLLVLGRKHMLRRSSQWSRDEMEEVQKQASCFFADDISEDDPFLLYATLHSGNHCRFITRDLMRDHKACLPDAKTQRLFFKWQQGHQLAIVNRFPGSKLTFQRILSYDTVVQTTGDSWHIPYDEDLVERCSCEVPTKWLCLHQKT
The experiment in a line: Human mitochondrial RNase P (MRPP1/2/3) activity assay. It counts as biochemical. To be noted: 30 min preincubation; 50 nM MRPP3, 500 nM MRPP1/2, 500 nM pre-tRNA, 37 °C; apparent IC50 for juglone. The method, then: Figure 4 Gambogic acid and juglone inhibit A. thaliana PRORP1 (green), human MRPP1/2/3 (red), and B. subtilis RNase P (blue). Compounds gambogic acid (A) and juglone (B) were incubated with enzyme at double the reaction concentration for 30 min prior to the addition of an equal volume of substrate to initiate the reaction. PRORP1 reactions (shown in green) were performed with 0.3 nM PRORP1 and 800 nM pre-tRNA containing 40 nM Fl-pre-tRNA at 25 °C in 30 mM MOPS pH 7.8, 5 mM MgCl2, 100 mM NaCl, 1 mM TCEP, 500 nM (12 μg/ml) yeast tRNA, 5 mM spermidine, 6.65 μg/ml BSA, and 0.01% NP-40. MRPP1/2/3 reactions (shown in red) were performed using 50 nM MRPP3, 500 nM MRPP1/2, 500 nM pre-tRNA containing 40 nM Fl-pre-tRNA at 37 °C in 50 mM MOPS (pH 7.8), 1 mM TCEP, 4.5 mM MgCl2, and 100 mM NaCl. […]
The inhibition of human MRPP1/2/3 by gambogic acid and juglone was evaluated via dose–response using a quenched assay. Human MRPP1/2/3 activity was measured as a function of gambogic acid and juglone concentration using 50 nM MRPP3, 500 nM MRPP1/2, 500 nM pre-tRNA containing 40 nM Fl-pre-tRNA in 50 mM MOPS (pH 7.8), 4.5 mM MgCl2, 100 mM NaCl, and 1 mM TCEP (pH 7.5). […] Samples were separated by 20% Urea PAGE (Ultra Pure SequaGel), fluorescence signal was quantified using ImageJ, and the data were analyzed using Prism. […]

The structures appear in SMILES notation.

For orientation: IC50 means the concentration needed to halve the response being measured. Regarding `CC(C)=CCC[C@]1(C)C=Cc2c(O)c3c(c(CC=C(C)C)c2O1)O[C@]12C(=C[C@@H]4C[C@H]1C(C)(C)O[C@@]2(C/C=C(/C)C(=O)O)C4=O)C3=O` [gambogic acid], the IC50 was 260 ± 60 nM.

Consider `O=C1C=CC(=O)c2c(O)cccc21` [juglone, 5-hydroxy-1,4-naphthalenedione], for which the IC50 worked out at 1800 ± 40 nM.
